Measured values reported in patent US20070060599A1, “Crystalline forms of [1S-(1alpha, 3alpha, 4beta)]-2-amino-1,9-dihydro-9-[4-hydroxy-3-(hydroxymethyl)-2-methylenecyclopentyl]-6H-purin-6-one” (priority 2005, published 2007).

Test system: hepatitis B virus infection
Experiment: once daily administration of low dose entecavir pharmaceutical compositions to treat hepatitis B virus infection
Format: in vivo, human
Experimental: In a yet another aspect, the invention provides pharmaceutical compositions comprising Form N-2 and/or Form IP.3-4 crystals of [1S-(1α,3α,4β)]-2-amino-1,9-dihydro-9-[4-hydroxy-3-(hydroxymethyl)-2-methylenecyclopentyl]-6H-purin-6-one and at least one pharmaceutically acceptable carrier or excipient. The pharmaceutical compositions may contain a low dose of from about 0.001 mg to about 25 mg of the active drug ingredient for once daily administration to treat hepatitis B virus infection in an adult human patient or a pediatric patient. Preferred pharmaceutical compositions contain from about 0.01 mg to about 10 mg of the active drug ingredient and most preferred pharmaceutical compositions contain from about 0.01 to about 5 mg of the active drug ingredient. Such preferred and most preferred pharmaceutical compositions are also administered once daily to treat hepatitis B virus infection in an adult or a pediatric patient.

**Q.** Which “effectiveness in treating hepatitis B virus infection” value does the source give for C=C1[C@H](CO)[C@@H](O)C[C@@H]1n1cnc2c(=O)[nH]c(N)nc21 [entecavir, [1S-(1α,3α,4β)]-2-amino-1,9-dihydro-9-[4-hydroxy-3-(hydroxymethyl)-2-methylenecyclopentyl]-6H-purin-6-one monohydrate] here?
**A.** The value was “effective”.

**Q.** And the undesirable side effects (compared with the high dose regimen of U.S. Pat. No. 5,206,244)?
**A.** Its undesirable side effects is “without undesirable side effects”.
